The values that follow are results of earlier work, collected in article PMC12241124 (Frontiers in Microbiology, 2025).

For the data set the following is noted: ref Mygind et al., 2005.

Take plectasin: the “terminal serum elimination half-life” value is reported as 51 min.
